Measured values from BindingDB's records for doi:10.1021/jm800180e (Schering-Plough Research Institute, 2008).

Legend:
[1] = Antagonist activity at PAR1 in human platelets assessed as inhibition of thrombin-induced platelet aggregation
[2] = Antagonist activity at PAR1 in human platelets assessed as inhibition of haTRAP-induced platelet aggregation

IC50 [1]: 47 nM
IC50 [2]: 25 nM
SMILES: CCOC(=O)N[C@@H]1CC[C@@H]2[C@@H](C1)C[C@H]1C(=O)O[C@H](C)[C@H]1[C@H]2C=Cc1ccc(-c2cccc(F)c2)cn1 [Ethyl [(3aR,4aR,8aR,9aS)-9(S)-[(E)-2-[5-(3-fluorophenyl)-2-pyridinyl]ethenyl]dodecahydro-1(R)-methyl-3-oxonaphtho[2,3-c]furan-6(R)-yl]carbamate]
